Assay results published in patent US8648116B2, “Derivatives of N-(arylamino) sulfonamides including polymorphs as inhibitors of MEK as well as compositions, methods of use and methods for preparing the same” (Ardea Biosciences, Inc., priority 2005, dated 2014).
Like-named read-outs stand apart in the source and are kept apart here.

Key:
pERK in brain = assay: MEK inhibition (pERK, Western blot) against plasma concentration, brain; format: in vivo, nu/nu mice
Description: Human tumors were implanted in nu/nu mice. Compound A was administered orally for 14 days once tumors were approximately 100 mm^3 in size. Tumor growth inhibition (TGI) was determined after 14 days of treatment as the reduction in the size of tumors in treated groups versus vehicle controls. The time to endpoint (TTE) was calculated as the time for the tumor to reach the specified endpoint volume or the last day of the study, whichever came first. Treatment outcome was determined from percent tumor growth delay (% TGD), defined as the percent increase in median TTE of treated versus vehicle-treated control mice. Animals were also monitored for regression responses. Levels of pERK in tumors and brain were determined by Western blots and correlated with plasma levels of Compound A for the pharmacodynamic/pharmacokinetic study. A number of tumor models were evaluated with different doses and dosing regimens. […] The effect of different dosing regimens was evaluated in A375 xenografts.
Female nu/nu mice implanted with Colo205 tumor cells were given a single dose of vehicle or Compound A at 2.5, 5, 10, or 25 mg/kg. Compound levels were determined in plasma samples and pERK levels were determined in tumor and brain samples collected at 2, 6, 12, and 24 hr post-dose. […]

[1] = system: carrageenan-induced hind paw edema; assay: Carrageenan-induced paw edema (CPE); format: in vivo, Sprague-Dawley rats; conditions: 6, 20 & 60 mg/kg orally 2 hr before carrageenan; all dose groups
Description: Compound A (6, 20 & 60 mg/kg) or indomethacin (3 mg/kg) were administered orally 2 hr prior to injection of 1% suspension of carrageenan into the right hind foot pad of male Sprague-Dawley rats (N-6 per treatment group). The hind paw edema was measured 3 hr later by assessing paw volume by plethysmography. Reduction of hind paw edema by 30% or greater indicates significant acute anti-inflammatory activity. Indomethacin (Indo) was used as a positive control drug.

human tumor cell lines = assay: In vitro cancer screen (SRB; GI50, TGI, LC50); conditions: for CC50: read-out: LC50
[2] = Pharmacokinetics in cancer patients following multiple doses; conditions: 6 mg
[3] = human, in vivo
[4] = A549/ATCC (Non-Small Cell Lung Cancer)
[5] = EKVX (Non-Small Cell Lung Cancer)
[6] = HOP-62 (Non-Small Cell Lung Cancer)
[7] = HOP-92 (Non-Small Cell Lung Cancer)
[8] = NCI-H23 (Non-Small Cell Lung Cancer)
[9] = NCI-H226 (Non-Small Cell Lung Cancer)
[10] = NCI-H322M (Non-Small Cell Lung Cancer)
[11] = NCI-H460 (Non-Small Cell Lung Cancer)
[12] = NCI-H522 (Non-Small Cell Lung Cancer)

In the case of `COc1cc(F)c(F)c(Nc2ccc(I)cc2F)c1NS(=O)(=O)C1(C[C@H](O)CO)CC1` [Compound A], the “pERK formation in brain” value (pERK in brain; Colo205 xenograft mice, pharmacodynamic/pharmacokinetic study) is reported as “minimal inhibition”, the EC50 (pERK in brain; Mus musculus, plasma concentration, Colo205-bearing nu/nu mice, single dose 2.5-25 mg/kg) is reported as greater than 5 µM and the “hind paw edema (paw volume)” value [1] is reported as “significant anti-inflammatory activity”.

For `COc1cc(F)c(F)c(Nc2ccc(I)cc2F)c1NS(=O)(=O)C1(C[C@H](O)CO)CC1`, the GI50 (human tumor cell lines; 786-0 (Renal Cancer)) was 5.13 µM, the TGI (human tumor cell lines; 786-0 (Renal Cancer)) was 23.442 µM and the GI50 (human tumor cell lines; A498 (Renal Cancer)) was 0.191 µM. For the same compound, the TGI (human tumor cell lines; A498 (Renal Cancer)) was 4.169 µM, the GI50 (human tumor cell lines; [4]) was 0.589 µM and the TGI (human tumor cell lines; [4]) was 64.565 µM. It also gave a GI50 (human tumor cell lines; ACHN (Renal Cancer)) of 0.275 µM, a TGI (human tumor cell lines; ACHN (Renal Cancer)) of 21.878 µM and a GI50 (human tumor cell lines; BT-549 (Breast Cancer)) of 5.75 µM. For the same compound, the TGI (human tumor cell lines; BT-549 (Breast Cancer)) was 20.893 µM, the GI50 (human tumor cell lines; CAKI-1 (Renal Cancer)) was 0.389 µM and the TGI (human tumor cell lines; CAKI-1 (Renal Cancer)) was 26.915 µM. For the same compound, the GI50 (human tumor cell lines; CCRF-CEM (Leukemia)) was 17.4 µM, the TGI (human tumor cell lines; CCRF-CEM (Leukemia)) was 60.256 µM and the GI50 (human tumor cell lines; DU-145 (Prostate Cancer)) was 2.14 µM. For the same compound, the TGI (human tumor cell lines; DU-145 (Prostate Cancer)) was 22.387 µM, the GI50 (human tumor cell lines; [5]) was 0.214 µM and the TGI (human tumor cell lines; [5]) was 13.804 µM. The GI50 (human tumor cell lines; HCC-2998 (Colon Cancer)) was 0.01 µM, the TGI (human tumor cell lines; HCC-2998 (Colon Cancer)) was 0.035 µM and the GI50 (human tumor cell lines; HCT-15 (Colon Cancer)) was 0.603 µM. The TGI (human tumor cell lines; HCT-15 (Colon Cancer)) was 16.982 µM, the GI50 (human tumor cell lines; HCT-116 (Colon Cancer)) was 0.195 µM and the TGI (human tumor cell lines; HCT-116 (Colon Cancer)) was 12.589 µM. For the same compound, the GI50 (human tumor cell lines; HL-60(TB) (Leukemia)) was 0.01 µM, the TGI (human tumor cell lines; HL-60(TB) (Leukemia)) was 100.000 µM and the GI50 (human tumor cell lines; [6]) was 0.069 µM. The TGI (human tumor cell lines; [6]) was 12.589 µM, the GI50 (human tumor cell lines; [7]) was 0.047 µM and the TGI (human tumor cell lines; [7]) was 0.324 µM. The GI50 (human tumor cell lines; HS 578T (Breast Cancer)) was 0.617 µM, the TGI (human tumor cell lines; HS 578T (Breast Cancer)) was 13.490 µM and the GI50 (human tumor cell lines; HT29 (Colon Cancer)) was 0.026 µM. For the same compound, the TGI (human tumor cell lines; HT29 (Colon Cancer)) was 3.090 µM, the GI50 (human tumor cell lines; IGROV1 (Ovarian Cancer)) was 0.018 µM and the TGI (human tumor cell lines; IGROV1 (Ovarian Cancer)) was 0.295 µM. The GI50 (human tumor cell lines; K-562 (Leukemia)) was 6.61 µM, the TGI (human tumor cell lines; K-562 (Leukemia)) was 100.000 µM and the GI50 (human tumor cell lines; KM12 (Colon Cancer)) was 0.229 µM. It also gave a TGI (human tumor cell lines; KM12 (Colon Cancer)) of 13.490 µM, a GI50 (human tumor cell lines; LOX IMVI (Melanoma)) of 0.195 µM and a TGI (human tumor cell lines; LOX IMVI (Melanoma)) of 10.715 µM. It also gave a GI50 (human tumor cell lines; M14 (Melanoma)) of 0.015 µM, a TGI (human tumor cell lines; M14 (Melanoma)) of 0.166 µM and a GI50 (human tumor cell lines; MALME-3M (Melanoma)) of 0.01 µM. For the same compound, the TGI (human tumor cell lines; MALME-3M (Melanoma)) was 0.014 µM, the GI50 (human tumor cell lines; MCF7 (Breast Cancer)) was 11 µM and the TGI (human tumor cell lines; MCF7 (Breast Cancer)) was 30.903 µM. It also gave a GI50 (human tumor cell lines; MDA-MB-231 (Breast Cancer)) of 0.069 µM, a TGI (human tumor cell lines; MDA-MB-231 (Breast Cancer)) of 10.471 µM and a GI50 (human tumor cell lines; MDA-MB-435 (Breast Cancer)) of 0.035 µM. The TGI (human tumor cell lines; MDA-MB-435 (Breast Cancer)) was 12.303 µM, the GI50 (human tumor cell lines; MDA-MB-468 (Breast Cancer)) was 0.019 µM and the TGI (human tumor cell lines; MDA-MB-468 (Breast Cancer)) was 10.233 µM. It also gave a GI50 (human tumor cell lines; MOLT-4 (Leukemia)) of 11 µM, a TGI (human tumor cell lines; MOLT-4 (Leukemia)) of 69.183 µM and a GI50 (human tumor cell lines; [8]) of 0.056 µM. For the same compound, the TGI (human tumor cell lines; [8]) was 2.884 µM, the GI50 (human tumor cell lines; [9]) was 3.31 µM and the TGI (human tumor cell lines; [9]) was 24.547 µM. It also gave a GI50 (human tumor cell lines; [10]) of 0.162 µM, a TGI (human tumor cell lines; [10]) of 15.488 µM and a GI50 (human tumor cell lines; [11]) of 3.63 µM. It also gave a TGI (human tumor cell lines; [11]) of 19.498 µM, a GI50 (human tumor cell lines; [12]) of 5.25 µM and a TGI (human tumor cell lines; [12]) of 29.512 µM. The GI50 (human tumor cell lines; NCI/ADR-RES (Breast Cancer)) was 3.47 µM, the TGI (human tumor cell lines; NCI/ADR-RES (Breast Cancer)) was 25.704 µM and the GI50 (human tumor cell lines; OVCAR-3 (Ovarian Cancer)) was 2.51 µM. The TGI (human tumor cell lines; OVCAR-3 (Ovarian Cancer)) was 17.783 µM, the GI50 (human tumor cell lines; OVCAR-4 (Ovarian Cancer)) was 0.562 µM and the TGI (human tumor cell lines; OVCAR-4 (Ovarian Cancer)) was 16.218 µM. It also gave a GI50 (human tumor cell lines; OVCAR-5 (Ovarian Cancer)) of 0.017 µM, a TGI (human tumor cell lines; OVCAR-5 (Ovarian Cancer)) of 12.023 µM and a GI50 (human tumor cell lines; PC-3 (Prostate Cancer)) of 8.13 µM. It also gave a TGI (human tumor cell lines; PC-3 (Prostate Cancer)) of 37.154 µM, a GI50 (human tumor cell lines; RPMI-8226 (Leukemia)) of 26.9 µM and a TGI (human tumor cell lines; RPMI-8226 (Leukemia)) of 100.000 µM. For the same compound, the GI50 (human tumor cell lines; SF-268 (CNS Cancer)) was 2.57 µM, the TGI (human tumor cell lines; SF-268 (CNS Cancer)) was 25.704 µM and the GI50 (human tumor cell lines; SF-295 (CNS Cancer)) was 9.33 µM. It also gave a TGI (human tumor cell lines; SF-295 (CNS Cancer)) of 23.442 µM, a GI50 (human tumor cell lines; SF-539 (CNS Cancer)) of 1.51 µM and a TGI (human tumor cell lines; SF-539 (CNS Cancer)) of 20.417 µM. The GI50 (human tumor cell lines; SK-MEL-5 (Melanoma)) was 0.062 µM, the TGI (human tumor cell lines; SK-MEL-5 (Melanoma)) was 13.804 µM and the GI50 (human tumor cell lines; SK-MEL-28 (Melanoma)) was 0.028 µM. It also gave a TGI (human tumor cell lines; SK-MEL-28 (Melanoma)) of 0.214 µM, a GI50 (human tumor cell lines; SK-OV-3 (Ovarian Cancer)) of 12.9 µM and a TGI (human tumor cell lines; SK-OV-3 (Ovarian Cancer)) of 41.687 µM. It also gave a GI50 (human tumor cell lines; SN12C (Renal Cancer)) of 0.851 µM, a TGI (human tumor cell lines; SN12C (Renal Cancer)) of 18.621 µM and a GI50 (human tumor cell lines; SNB-19 (CNS Cancer)) of 0.251 µM. The TGI (human tumor cell lines; SNB-19 (CNS Cancer)) was 24.547 µM, the GI50 (human tumor cell lines; SNB-75 (CNS Cancer)) was 0.302 µM and the TGI (human tumor cell lines; SNB-75 (CNS Cancer)) was 4.467 µM. The GI50 (human tumor cell lines; SR (Leukemia)) was 38 µM, the TGI (human tumor cell lines; SR (Leukemia)) was 100.000 µM and the GI50 (human tumor cell lines; SW-620 (Colon Cancer)) was 0.039 µM. For the same compound, the TGI (human tumor cell lines; SW-620 (Colon Cancer)) was 12.589 µM, the GI50 (human tumor cell lines; T-47D (Breast Cancer)) was 4.9 µM and the TGI (human tumor cell lines; T-47D (Breast Cancer)) was 38.019 µM. For the same compound, the GI50 (human tumor cell lines; TK-10 (Renal Cancer)) was 0.224 µM, the TGI (human tumor cell lines; TK-10 (Renal Cancer)) was 23.442 µM and the GI50 (human tumor cell lines; U251 (CNS Cancer)) was 0.891 µM. The TGI (human tumor cell lines; U251 (CNS Cancer)) was 17.378 µM, the GI50 (human tumor cell lines; UACC-62 (Melanoma)) was 0.014 µM and the TGI (human tumor cell lines; UACC-62 (Melanoma)) was 0.170 µM. For the same compound, the GI50 (human tumor cell lines; UACC-257 (Melanoma)) was 0.02 µM, the TGI (human tumor cell lines; UACC-257 (Melanoma)) was 10.233 µM and the GI50 (human tumor cell lines; UO-31 (Renal Cancer)) was 0.158 µM. The TGI (human tumor cell lines; UO-31 (Renal Cancer)) was 11.482 µM, the CC50 (human tumor cell lines; HCT-15 (Colon Cancer)) was 60.3 µM and the CC50 (human tumor cell lines; HT29 (Colon Cancer)) was 29.5 µM. The CC50 (human tumor cell lines; M14 (Melanoma)) was 29.5 µM, the CC50 (human tumor cell lines; MDA-MB-435 (Breast Cancer)) was 41.7 µM and the CC50 (human tumor cell lines; SF-539 (CNS Cancer)) was 60.3 µM. The CC50 (human tumor cell lines; SK-MEL-28 (Melanoma)) was 22.4 µM, the CC50 (human tumor cell lines; UACC-62 (Melanoma)) was 20.9 µM and the “Rac AUCτ (accumulation index)” value [2] was 2.07. The half-lives [3] was 13 to 15 h.
